Source: ChEMBL document CHEMBL4000192, “Identification and optimization of a novel series of indoleamine 2,3-dioxygenase inhibitors” (Bioorg Med Chem Lett, 2017)
pIC50: −log10 of the molar value.

How the values were obtained:
HeLa = assay: Cytotoxic activity against human HeLa cells by […]; assay type: cell-based
Cytochrome P450 1A2 = target: T1, Cytochrome P450 1A2 (Homo sapiens, UniProt P05177); assay: Inhibition of CYP1A2 (unknown origin); assay type: ADME
T1 sequence (P05177 whole entry): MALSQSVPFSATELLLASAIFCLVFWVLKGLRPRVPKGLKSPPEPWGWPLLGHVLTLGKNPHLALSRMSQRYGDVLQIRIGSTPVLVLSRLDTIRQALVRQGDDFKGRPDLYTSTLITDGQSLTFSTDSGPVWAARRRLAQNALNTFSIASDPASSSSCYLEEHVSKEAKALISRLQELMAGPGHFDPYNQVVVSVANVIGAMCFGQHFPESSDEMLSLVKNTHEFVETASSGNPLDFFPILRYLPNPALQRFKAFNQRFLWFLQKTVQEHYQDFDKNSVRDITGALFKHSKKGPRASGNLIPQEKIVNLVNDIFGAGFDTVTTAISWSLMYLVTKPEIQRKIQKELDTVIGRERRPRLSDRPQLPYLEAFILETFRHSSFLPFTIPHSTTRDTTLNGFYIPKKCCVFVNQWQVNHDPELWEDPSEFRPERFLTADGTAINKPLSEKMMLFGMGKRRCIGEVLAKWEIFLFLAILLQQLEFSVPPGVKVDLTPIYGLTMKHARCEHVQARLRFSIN

Cytochrome P450 2C9 = Cytochrome P450 2C9 (Homo sapiens, UniProt P11712); assay: Inhibition of CYP2C9 (unknown origin); assay type: ADME
Cytochrome P450 2C9, sequence (P11712 whole entry): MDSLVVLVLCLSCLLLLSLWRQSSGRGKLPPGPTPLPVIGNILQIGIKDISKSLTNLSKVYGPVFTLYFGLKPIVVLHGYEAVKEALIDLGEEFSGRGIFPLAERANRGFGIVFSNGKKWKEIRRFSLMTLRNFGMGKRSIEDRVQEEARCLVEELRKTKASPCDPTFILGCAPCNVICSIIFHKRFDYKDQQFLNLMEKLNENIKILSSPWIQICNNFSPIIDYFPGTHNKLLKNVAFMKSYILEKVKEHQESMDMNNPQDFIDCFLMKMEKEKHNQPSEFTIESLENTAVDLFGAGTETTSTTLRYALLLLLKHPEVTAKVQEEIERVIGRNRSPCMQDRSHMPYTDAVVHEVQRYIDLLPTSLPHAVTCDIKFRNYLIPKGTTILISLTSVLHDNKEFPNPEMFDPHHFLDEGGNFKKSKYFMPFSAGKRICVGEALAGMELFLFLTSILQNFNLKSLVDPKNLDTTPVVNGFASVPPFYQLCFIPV

Cytochrome P450 2B6 = target: T2, Cytochrome P450 2B6 (Homo sapiens, UniProt P20813); assay: Inhibition of CYP2B6 (unknown origin); assay type: ADME
T2 sequence (P20813 whole entry): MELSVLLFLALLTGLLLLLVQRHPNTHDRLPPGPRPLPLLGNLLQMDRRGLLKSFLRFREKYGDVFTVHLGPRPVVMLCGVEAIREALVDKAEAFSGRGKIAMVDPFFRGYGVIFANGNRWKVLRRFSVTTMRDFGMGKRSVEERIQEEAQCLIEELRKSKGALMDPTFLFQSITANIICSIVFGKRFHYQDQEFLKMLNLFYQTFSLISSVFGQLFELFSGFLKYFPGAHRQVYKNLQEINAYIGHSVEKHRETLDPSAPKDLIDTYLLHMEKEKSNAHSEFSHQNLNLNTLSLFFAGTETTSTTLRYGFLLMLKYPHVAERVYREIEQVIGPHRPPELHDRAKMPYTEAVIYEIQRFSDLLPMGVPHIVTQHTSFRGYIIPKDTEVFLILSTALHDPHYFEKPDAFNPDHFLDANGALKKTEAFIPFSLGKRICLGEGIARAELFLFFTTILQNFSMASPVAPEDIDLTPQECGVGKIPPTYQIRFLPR

Cytochrome P450 2C19 = Cytochrome P450 2C19 (Homo sapiens, UniProt P33261); assay: Inhibition of CYP2C19 (unknown origin); assay type: ADME
Cytochrome P450 2C19, sequence (P33261 whole entry): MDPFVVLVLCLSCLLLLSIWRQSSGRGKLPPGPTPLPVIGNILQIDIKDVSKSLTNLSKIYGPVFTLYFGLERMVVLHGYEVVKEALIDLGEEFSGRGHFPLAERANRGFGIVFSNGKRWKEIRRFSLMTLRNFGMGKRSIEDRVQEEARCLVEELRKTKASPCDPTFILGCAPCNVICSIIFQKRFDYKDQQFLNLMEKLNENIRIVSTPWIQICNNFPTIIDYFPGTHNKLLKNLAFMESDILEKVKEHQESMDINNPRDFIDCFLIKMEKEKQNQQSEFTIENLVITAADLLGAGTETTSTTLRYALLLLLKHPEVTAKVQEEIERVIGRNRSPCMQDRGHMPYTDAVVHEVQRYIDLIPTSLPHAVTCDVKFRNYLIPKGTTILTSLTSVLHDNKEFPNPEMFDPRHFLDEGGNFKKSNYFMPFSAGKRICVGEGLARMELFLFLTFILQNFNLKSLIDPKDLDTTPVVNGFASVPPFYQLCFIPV

[1] = target: T3, Indoleamine 2,3-dioxygenase 1 (Homo sapiens, UniProt P14902); assay: Inhibition of IDO1 in IFN-gamma stimulated human HeLa cells assessed as inhibition of kynurenine production preincubated with cells followed by IFN-gamma addition measured after 20 hrs; assay type: cell-based
Target sequence in this assay (P14902 whole entry): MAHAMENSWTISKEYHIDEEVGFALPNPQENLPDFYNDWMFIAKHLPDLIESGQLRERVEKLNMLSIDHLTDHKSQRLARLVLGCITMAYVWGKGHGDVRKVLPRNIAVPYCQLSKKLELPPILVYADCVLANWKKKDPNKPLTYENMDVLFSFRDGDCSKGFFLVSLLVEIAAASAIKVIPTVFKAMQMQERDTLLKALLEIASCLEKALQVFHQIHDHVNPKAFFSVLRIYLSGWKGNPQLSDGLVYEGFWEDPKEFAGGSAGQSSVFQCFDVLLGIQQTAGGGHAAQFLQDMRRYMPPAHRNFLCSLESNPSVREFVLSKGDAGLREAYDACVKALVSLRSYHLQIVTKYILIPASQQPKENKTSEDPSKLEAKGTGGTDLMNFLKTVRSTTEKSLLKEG

Cytochrome P450 2D6 = Cytochrome P450 2D6 (Homo sapiens, UniProt P10635); assay: Inhibition of CYP2D6 (unknown origin); assay type: ADME
Cytochrome P450 2D6, sequence (P10635 whole entry): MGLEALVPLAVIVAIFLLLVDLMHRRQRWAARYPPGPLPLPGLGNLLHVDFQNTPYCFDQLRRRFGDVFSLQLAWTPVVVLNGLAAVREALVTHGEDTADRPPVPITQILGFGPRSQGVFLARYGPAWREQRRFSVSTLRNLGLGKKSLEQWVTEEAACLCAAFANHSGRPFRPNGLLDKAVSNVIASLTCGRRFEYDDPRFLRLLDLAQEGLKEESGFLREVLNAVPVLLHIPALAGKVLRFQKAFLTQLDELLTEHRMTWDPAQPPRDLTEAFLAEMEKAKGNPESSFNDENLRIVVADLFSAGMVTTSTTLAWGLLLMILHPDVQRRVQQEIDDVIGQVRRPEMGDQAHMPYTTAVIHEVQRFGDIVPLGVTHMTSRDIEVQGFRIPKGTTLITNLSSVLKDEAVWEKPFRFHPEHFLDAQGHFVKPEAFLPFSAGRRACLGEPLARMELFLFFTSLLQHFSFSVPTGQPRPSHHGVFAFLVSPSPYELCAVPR

Cytochrome P450 3A4 [2] = target: T4, Cytochrome P450 3A4 (Homo sapiens, UniProt P08684); assay: Inhibition of CYP3A4 (unknown origin) using BZR as substrate; assay type: ADME
T4 sequence (P08684 whole entry): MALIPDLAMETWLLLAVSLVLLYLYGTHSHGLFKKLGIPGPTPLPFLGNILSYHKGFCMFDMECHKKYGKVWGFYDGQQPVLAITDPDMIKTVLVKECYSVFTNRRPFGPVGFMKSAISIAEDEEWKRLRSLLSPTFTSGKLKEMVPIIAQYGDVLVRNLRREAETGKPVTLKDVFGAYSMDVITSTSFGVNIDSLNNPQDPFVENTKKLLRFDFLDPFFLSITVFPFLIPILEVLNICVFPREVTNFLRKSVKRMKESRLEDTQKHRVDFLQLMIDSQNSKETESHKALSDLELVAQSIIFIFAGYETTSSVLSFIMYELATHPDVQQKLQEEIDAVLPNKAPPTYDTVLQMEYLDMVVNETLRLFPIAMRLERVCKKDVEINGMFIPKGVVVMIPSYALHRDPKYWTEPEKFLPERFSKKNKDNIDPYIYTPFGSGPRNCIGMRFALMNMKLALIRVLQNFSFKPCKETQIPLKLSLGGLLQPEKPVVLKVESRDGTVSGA

Cytochrome P450 3A4 [3] = target: T4, Cytochrome P450 3A4; assay: Inhibition of CYP3A4 (unknown origin) using BFC as substrate; assay type: ADME
Cytochrome P450 2C8 = target: T5, Cytochrome P450 2C8 (Homo sapiens, UniProt P10632); assay: Inhibition of CYP2C8 (unknown origin); assay type: ADME
T5 sequence (P10632 whole entry): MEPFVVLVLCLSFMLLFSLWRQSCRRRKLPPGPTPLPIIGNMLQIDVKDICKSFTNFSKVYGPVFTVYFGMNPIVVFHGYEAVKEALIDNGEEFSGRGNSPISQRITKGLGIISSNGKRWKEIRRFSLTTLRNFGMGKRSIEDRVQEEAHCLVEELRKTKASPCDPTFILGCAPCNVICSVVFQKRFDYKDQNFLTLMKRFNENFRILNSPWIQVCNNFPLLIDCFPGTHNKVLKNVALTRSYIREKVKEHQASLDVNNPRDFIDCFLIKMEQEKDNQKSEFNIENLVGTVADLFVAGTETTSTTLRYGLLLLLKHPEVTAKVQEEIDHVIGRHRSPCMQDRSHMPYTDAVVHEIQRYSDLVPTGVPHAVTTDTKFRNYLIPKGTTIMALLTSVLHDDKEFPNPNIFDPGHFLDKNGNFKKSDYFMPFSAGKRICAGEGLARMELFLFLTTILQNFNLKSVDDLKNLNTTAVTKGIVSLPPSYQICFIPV

[4] = target: T3, Indoleamine 2,3-dioxygenase 1; assay: Inhibition of IDO1 (unknown origin) at 25 uM using tryptophan as substrate preincubated for 15 mins followed by substrate addition by high-throughput screening assay relative to control
Target sequence in this assay (P14902 whole entry, looked up): as the sequence (P14902 whole entry) above

[5] = target: T3, Indoleamine 2,3-dioxygenase 1; assay: Inhibition of IDO1 (unknown origin) using tryptophan as substrate preincubated for 15 mins followed by substrate addition by high-throughput screening assay
Target sequence in this assay (P14902 whole entry): as above

[6] = Metabolic stability in rat liver microsomes assessed as parent compound remaining at 0.5 uM after 10 mins; assay type: ADME, microsome; settings: read-out: Stability
[7] = Metabolic stability in human liver microsomes assessed as parent compound remaining at 0.5 uM after 10 mins; assay type: ADME, microsome; settings: read-out: Stability
[8] = Metabolic stability in mouse liver microsomes assessed as parent compound remaining at 0.5 uM after 10 mins; assay type: ADME, microsome; settings: read-out: Stability

Cc1ccc(NC(=O)Nc2cc(-c3cccc(C(=O)O)c3)ccc2Oc2ccccc2C(C)(C)C)cc1
pIC50 (HeLa): < 4.52

Cc1cccc(NC(=O)Nc2cc(-c3cccc(C(=O)O)c3)ccc2Oc2ccccc2C(C)(C)C)c1
pIC50 (HeLa): < 4.52

COc1ccc(-c2ccc(Oc3ccccc3Cl)c(NC(=O)Nc3ccc(C)cc3)c2)cc1C(=O)O
pIC50 (HeLa): < 4.52

CC(C)(C)c1ccccc1Oc1ccc(-c2cccc(C(=O)O)c2)cc1NC(=O)Nc1ccc(Br)cc1
pIC50 (HeLa): < 4.52

CC(C)(C)c1ccccc1Oc1ccc(-c2cccc(C(=O)O)c2)cc1NC(=O)Nc1ccc(OC(F)(F)F)cc1
pIC50 (Cytochrome P450 1A2): < 5.30
pIC50 (Cytochrome P450 2C9): 5.60
pIC50 (Cytochrome P450 2B6): < 5.30
pIC50 (Cytochrome P450 2C19): < 5.30
pIC50 [1]: 5.40
pIC50 (HeLa): 4.66
pIC50 (Cytochrome P450 2D6): < 5.30
pIC50 (Cytochrome P450 3A4 [2]): < 5.30
pIC50 (Cytochrome P450 3A4 [3]): < 5.30
pIC50 (Cytochrome P450 2C8): < 5.30
inhibition [4]: > 75%
pIC50 [5]: 7.06

COc1ccc(-c2ccc(Oc3ccccc3C#N)c(NC(=O)Nc3ccc(C)cc3)c2)cc1C(=O)O
pIC50 [1]: 5.22
pIC50 (HeLa): < 4.52

COc1ccc(-c2ccc(Oc3ccccc3C(C)(C)CO)c(NC(=O)Nc3ccc(C)cc3)c2)cc1C(=O)O
pIC50 [1]: 5.62
pIC50 (HeLa): < 4.52

COc1ccccc1Oc1ccc(-c2ccc(OC)c(C(=O)O)c2)cc1NC(=O)Nc1ccc(C)cc1
pIC50 (HeLa): < 4.52

CC(C)(C)c1ccccc1Oc1ccc(-c2cccc(C(=O)O)c2)cc1NC(=O)Nc1ccccc1
pIC50 [1]: 5.82
pIC50 (HeLa): < 4.52

COc1ccc(-c2ccc(Oc3cccc4c3CCCC4)c(NC(=O)Nc3cccc(C)c3)c2)cc1C(=O)O
pIC50 (Cytochrome P450 1A2): < 5.52
pIC50 (Cytochrome P450 2C9): < 5.52
remaining at 10 min, 0.5 µM [6]: 71%
pIC50 (Cytochrome P450 2B6): < 5.52
pIC50 (Cytochrome P450 2C19): < 5.52
remaining at 10 min, 0.5 µM [7]: 84%
pIC50 (HeLa): < 4.52
pIC50 (Cytochrome P450 2D6): < 5.52
pIC50 (Cytochrome P450 3A4 [2]): < 5.52
pIC50 (Cytochrome P450 3A4 [3]): < 5.52
pIC50 (Cytochrome P450 2C8): < 5.52
remaining at 10 min, 0.5 µM [8]: 86%

COc1ccc(-c2ccc(Oc3cccc4c3CCCC4)c(NC(=O)Nc3ccccc3Cl)c2)cc1C(=O)O
pIC50 (Cytochrome P450 1A2): < 5.52
pIC50 (Cytochrome P450 2C9): < 5.52
remaining at 10 min, 0.5 µM [6]: 83%
pIC50 (Cytochrome P450 2B6): < 5.52
pIC50 (Cytochrome P450 2C19): < 5.52
remaining at 10 min, 0.5 µM [7]: 74%
pIC50 [1]: 7.66
pIC50 (HeLa): < 4.52
pIC50 (Cytochrome P450 2D6): < 5.52
pIC50 (Cytochrome P450 3A4 [2]): < 5.52
pIC50 (Cytochrome P450 3A4 [3]): < 5.52
pIC50 (Cytochrome P450 2C8): < 5.52
remaining at 10 min, 0.5 µM [8]: 74%

COc1ccc(-c2ccc(Oc3cccc4c3CCCC4)c(NC(=O)Nc3ccc(C)cc3)c2)cc1C(=O)O
remaining at 10 min, 0.5 µM [6]: 95%
remaining at 10 min, 0.5 µM [7]: 100%
pIC50 [1]: 7.00
pIC50 (HeLa): < 4.52
remaining at 10 min, 0.5 µM [8]: 69%

CCCc1ccccc1Oc1ccc(-c2ccc(OC)c(C(=O)O)c2)cc1NC(=O)Nc1ccc(C)cc1
pIC50 (HeLa): < 4.52

COc1ccc(-c2ccc(Oc3ccccc3C(C)C)c(NC(=O)Nc3ccc(C)cc3)c2)cc1C(=O)O
pIC50 [1]: 6.47
pIC50 (HeLa): < 4.52

COc1ccc(-c2ccc(Oc3cccc4c3CCC4)c(NC(=O)Nc3ccc(C)cc3)c2)cc1C(=O)O
pIC50 (HeLa): < 4.52

COc1ccc(-c2ccc(Oc3ccccc3C(C)(C)C)c(NC(=O)Nc3ccc(C)cc3)c2)cc1C(=O)O
pIC50 [1]: 6.46
pIC50 (HeLa): < 4.52

CC(C)(C)c1ccccc1Oc1ccc(-c2cccc(C(=O)O)c2)cc1NC(=O)Nc1ccc(OC(F)F)cc1
pIC50 [1]: 5.59
pIC50 (HeLa): < 4.52

COc1ccc(-c2ccc(Oc3cccc(C)c3C)c(NC(=O)Nc3ccc(C)cc3)c2)cc1C(=O)O
pIC50 (HeLa): < 4.52

COc1ccc(-c2ccc(Oc3cccc(C(C)(C)C)c3)c(NC(=O)Nc3ccc(C)cc3)c2)cc1C(=O)O
pIC50 (HeLa): < 4.52

Cc1ccccc1NC(=O)Nc1cc(-c2cccc(C(=O)O)c2)ccc1Oc1ccccc1C(C)(C)C
pIC50 [1]: 6.00
pIC50 (HeLa): < 4.52

COc1ccc(-c2ccc(Oc3cccc4c3CCCC4)c(NC(=O)Nc3ccccc3C)c2)cc1C(=O)O
pIC50 (Cytochrome P450 1A2): < 5.52
pIC50 (Cytochrome P450 2C9): < 5.52
remaining at 10 min, 0.5 µM [6]: 65%
pIC50 (Cytochrome P450 2B6): < 5.52
pIC50 (Cytochrome P450 2C19): < 5.52
remaining at 10 min, 0.5 µM [7]: 41%
pIC50 [1]: 7.31
pIC50 (HeLa): < 4.52
pIC50 (Cytochrome P450 2D6): < 5.52
pIC50 (Cytochrome P450 3A4 [2]): < 5.52
pIC50 (Cytochrome P450 3A4 [3]): < 5.52
pIC50 (Cytochrome P450 2C8): < 5.52
remaining at 10 min, 0.5 µM [8]: 70%

Cc1ccc(NC(=O)Nc2cc(-c3cc(Cl)cc(C(=O)O)c3)ccc2Oc2ccccc2C(C)(C)C)cc1
pIC50 [1]: 6.60
pIC50 (HeLa): < 4.52

COc1ccc(-c2ccc(Oc3cccc4c3CCCC4)c(NC(=O)Nc3ccccc3F)c2)cc1C(=O)O
remaining at 10 min, 0.5 µM [6]: 72%
remaining at 10 min, 0.5 µM [7]: 95%
pIC50 (HeLa): < 5.00
remaining at 10 min, 0.5 µM [8]: 77%

COc1ccc(-c2ccc(Oc3ccccc3C)c(NC(=O)Nc3ccc(C)cc3)c2)cc1C(=O)O
pIC50 (HeLa): < 4.52

CCc1ccccc1Oc1ccc(-c2ccc(OC)c(C(=O)O)c2)cc1NC(=O)Nc1ccc(C)cc1
pIC50 (HeLa): < 4.52

Cc1ccc(NC(=O)Nc2cc(-c3ccc(Cl)c(C(=O)O)c3)ccc2Oc2ccccc2C(C)(C)C)cc1
pIC50 (HeLa): < 4.52

C#CCOc1cccc(Oc2ccc(-c3ccc(OC)c(C(=O)O)c3)cc2NC(=O)Nc2ccc(C)cc2)c1C
pIC50 (HeLa): < 4.52

COc1ccc(-c2ccc(Oc3cccc4c3CCCC4)c(NC(=O)Nc3ccccc3)c2)cc1C(=O)O
remaining at 10 min, 0.5 µM [6]: 92%
remaining at 10 min, 0.5 µM [7]: 80%
pIC50 [1]: 7.21
pIC50 (HeLa): < 5.00
remaining at 10 min, 0.5 µM [8]: 96%

COc1ccc(NC(=O)Nc2cc(-c3cccc(C(=O)O)c3)ccc2Oc2ccccc2C(C)(C)C)cc1
pIC50 (HeLa): < 4.52

CCOc1ccc(-c2ccc(Oc3ccccc3C(C)(C)C)c(NC(=O)Nc3ccc(C)cc3)c2)cc1C(=O)O
pIC50 (HeLa): < 4.52

Cc1ccc(NC(=O)Nc2cc(-c3cccc(C(=O)O)c3F)ccc2Oc2ccccc2C(C)(C)C)cc1
pIC50 [1]: 5.35
pIC50 (HeLa): < 4.52

CC(C)(C)c1ccccc1Oc1ccc(-c2cccc(C(=O)O)c2)cc1NC(=O)Nc1ccc(Cl)cc1
pIC50 (HeLa): < 4.52
